# Reference: patent US12195427B2, “MASP-2 inhibitors and methods of use” (priority 2018, dated 2025)
# Structures can show the parent of a compound that is named as a salt.
# Molecular target: MASP-2 CCP2-SP (Homo sapiens (Human), UniProt O00187)
# Assay: MASP-2 co-crystallization, X-ray crystallography and structure analysis (H-bonds, van der Waals contacts);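 for Ligand-pharmacophore element distance, pharmacophore element C2: distance from averaged pharmacophore element to bound ligand; missing value means element absent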;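 for Ligand-pharmacophore element distance, pharmacophore element C3: distance from averaged pharmacophore element to bound ligand; missing value means element absent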;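 for Ligand-pharmacophore element distance, pharmacophore element C4: distance from averaged pharmacophore element to bound ligand; missing value means element absent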;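 for Ligand-pharmacophore element distance, pharmacophore element C5: distance from averaged pharmacophore element to bound ligand; missing value means element absent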
# Design: van der Waals contact distance, MASP-2 HIS 483 atom CD2 / van der Waals contact distance, MASP-2 HIS 483 atom NE2 / van der Waals contact distance, SER 654 C to compound atom / van der Waals contact distance, SER 654 O to compound atom / van der Waals contact distance, TRP 655 C to compound atom / van der Waals contact distance, MASP-2 GLY 528 atom CA / van der Waals contact distance TRP 655 atom CZ3 / van der Waals contact distance TRP 655 atom N / van der Waals contact distance TRP 655 atom CE3 / van der Waals contact distance GLY 656 atom C / van der Waals contact distance GLY 656 atom CA / van der Waals contact distance GLY 656 atom O / van der Waals contact distance, MASP-2 TYR 607 atom CD1 / van der Waals contact distance, MASP-2 PRO 606 atom O / d(C3,CA1) / d(CA1,N1)2 / d(H4,O1) / d(H4,O2) / d(O1,O2) / d(CA1,O2) / d(CA6,O1) / d(CA6,O2) / d(CA1,C5) / d(O2,H3) / d(N2,C2) / d(CA5,N2) / d(N2,C4) / d(N2,C6) / d(N2,CA3) / d(N2,O3) / d(O4,H2): unit not given beside the values
# Conditions: for Ligand-pharmacophore element distance, pharmacophore element C2 / Ligand-pharmacophore element distance, pharmacophore element C3 / Ligand-pharmacophore element distance, pharmacophore element C4 / Ligand-pharmacophore element distance, pharmacophore element C5 / Ligand-pharmacophore element distance, pharmacophore element C6 / Ligand-pharmacophore element distance, pharmacophore element C7 / Ligand-pharmacophore element distance, pharmacophore element CA1 / Ligand-pharmacophore element distance, pharmacophore element CA2 / Ligand-pharmacophore element distance, pharmacophore element CA3 / Ligand-pharmacophore element distance, pharmacophore element CA4 / Ligand-pharmacophore element distance, pharmacophore element CA5 / Ligand-pharmacophore element distance, pharmacophore element CA6: Table A4-1; for d(N2,C2) / d(N2,CA2) / d(O2,H3) / d(O2,N2): Table A5-2 pharmacophore distance, S3/S4 region; for a(O1, O2, H3) / a(O1, O2, N2) / a(O2, N2, C2) / a(O2, N2, CA2): Table A6-2 pharmacophore angle; for Pharmacophore torsion angle a(O1, O2, N2, CA2): Table A7-2
# Summary of the method: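 Inhibitor complexes were obtained by soaking crystals of E. coli-expressed human MASP-2 CCP2-SP constructs, then flash-cooling in liquid nitrogen. Structures solved by molecular replacement (1Q3X search model) from synchrotron diffraction; where several poses existed, only one was analyzed, and nonbonded contacts listed can include H-bonds.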
# [1] = Table A5-1 pharmacophore: distance between elements, S2/S1 region
# [2] = Table A7-1, between pharmacophore elements of the bound compound
# [3] = between pharmacophore elements of the bound compound
# [4] = Table A8-6, nearest protein atom in cell to the left
# Chain of MASP-2 CCP2-SP (O00187 445-686): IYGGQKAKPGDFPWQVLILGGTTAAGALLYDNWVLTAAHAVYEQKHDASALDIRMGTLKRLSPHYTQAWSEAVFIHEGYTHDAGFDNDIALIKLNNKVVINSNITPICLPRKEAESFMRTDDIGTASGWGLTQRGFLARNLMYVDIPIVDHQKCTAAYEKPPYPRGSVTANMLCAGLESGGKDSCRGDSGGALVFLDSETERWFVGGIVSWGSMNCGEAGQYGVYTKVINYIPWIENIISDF
# Chain of MASP-2 CCP2-SP (O00187 364-432 partner): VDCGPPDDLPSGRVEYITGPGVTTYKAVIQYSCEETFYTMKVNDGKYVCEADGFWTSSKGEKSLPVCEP
smiles,measurement,setting,value
C[C@H](NC(=O)[C@H](N)C1Cc2ccccc2C1)C(=O)NCc1ccc2c(N)nccc2c1.Cl.Cl [1088_B],"Ligand-pharmacophore element distance, pharmacophore element C2",,1.93
same,"Ligand-pharmacophore element distance, pharmacophore element C3",,0
same,"Ligand-pharmacophore element distance, pharmacophore element C4",,0
same,"Ligand-pharmacophore element distance, pharmacophore element C5",,0
same,"Ligand-pharmacophore element distance, pharmacophore element C6",,0
same,"Ligand-pharmacophore element distance, pharmacophore element C7",,0
same,"Ligand-pharmacophore element distance, pharmacophore element CA1",,0.62
same,"Ligand-pharmacophore element distance, pharmacophore element CA2",,0.2
same,"Ligand-pharmacophore element distance, pharmacophore element CA3",,0
same,"Ligand-pharmacophore element distance, pharmacophore element CA4",,0
same,"Ligand-pharmacophore element distance, pharmacophore element CA5",,0
same,"Ligand-pharmacophore element distance, pharmacophore element CA6",,0
same,"d(CA1,O1)",[1],5.22
same,"d(CA1,O2)",[1],4.78
same,"d(H4,O1)",[1],6.73
same,"d(H4,O2)",[1],6.06
same,"d(O1,O2)",[1],3.02
same,"d(N2,C2)",,3.90
same,"d(N2,CA2)",,6.13
same,"d(O2,H3)",,3.82
same,"d(O2,N2)",,2.68
same,"a(CA1, O1, O2)",Table A6-1 pharmacophore angle,99.27
same,"a(O1, O2, H4)",Table A6-1 pharmacophore angle,153.40
same,"a(O1, O2, H3)",,144.52
same,"a(O1, O2, N2)",,135.22
same,"a(O2, N2, C2)",,140.65
same,"a(O2, N2, CA2)",,154.54
same,"Pharmacophore torsion angle a(H4, O1, O2, H3)",[2],45.99
same,"Pharmacophore torsion angle a(H4, O1, O2, N2)",[2],121.15
same,"Pharmacophore torsion angle a(O1, H4, O2, CA1)",[2],−63.34
same,"Pharmacophore torsion angle a(O1, O2, N2, C2)",[2],129.99
same,"Pharmacophore torsion angle a(O1, O2, N2, CA2)",[3],134.51
same,Pharmacophore protein distance to MET_658 (first MET_658 column),"Table A8-6, 6th residue column, nearest protein atom in cell to the left",3.04
same,Pharmacophore protein distance to MET_658 (second MET_658 column),"Table A8-6, 9th residue column, nearest protein atom in cell to the left",3.12
same,Pharmacophore protein distance to GLY_528,[4],3.66
same,Pharmacophore protein distance to PHE_529,[4],2.75
same,Pharmacophore protein distance to PRO_608,[4],3.74
same,Pharmacophore protein distance to SER_611,[4],2.71
same,Pharmacophore protein distance to TRP_655,"Table A8-6, pharmacophore elements C6, CA3, O3, H1, nearest protein atom in cell to the left",3.75
"N=C(N)c1ccc(CNC(=O)C(CF)NC(=O)[C@H](N)CCc2ccccc2)cc1 (stereo partly drawn) [compound 1050, (2R)-2-Amino-N-(1-((4-carbamimidoylbenzyl)amino)-3-fluoro-1-oxopropan-2-yl)-4-phenylbutanamide Dihydrochloride]",H-bond distance to MASP-2 GLY 656 atom N,"Table A1 (H-Bonds), GLY 656 N",3.18
same,H-bond distance to MASP-2 GLY 656 atom O,"Table A1 (H-Bonds), GLY 656 O",2.58
same,H-bond distance to MASP-2 SER 654 atom O,"Table A1 (H-Bonds), SER 654 O",3.03
same,H-bond distance to MASP-2 SER 657 atom O,"Table A1 (H-Bonds), SER 657 O",2.86
same,"van der Waals contact distance, MASP-2 PHE 529 atom CD1",Table A2-3,3.61
same,"van der Waals contact distance, MASP-2 PHE 529 atom CE1",Table A2-3,3.56
same,"van der Waals contact distance, MASP-2 PHE 529 atom CZ",Table A2-3,3.88
same,"van der Waals contact distance, MASP-2 amino acid atom to compound atom","Table A2-5: TYR 607 (CE1, CE2, OH), PRO 608 (CD, CG), SER 611 (CA)",3.68
same,"van der Waals contact distance, MASP-2 amino acid atom to compound atom","Table A2-9, ARG 630, AA atoms CG, CZ",3.66
same,"van der Waals contact distance, MASP-2 amino acid atom to compound atom","Table A2-9 second part, ARG 630, AA atoms N, NE, NH1",3.66
same,"van der Waals contact distance, VAL 653 CG1 to compound atom",Table A2-11,3.74
same,"van der Waals contact distance, SER 654 O to compound atom",Table A2-12,3.72
same,van der Waals contact distance TRP 655 atom CZ3,"Table A2-13, MASP-2 TRP 655 CZ3",3.81
same,van der Waals contact distance TRP 655 atom N,"Table A2-13, MASP-2 TRP 655 N",3.74
same,"Ligand-pharmacophore element distance, pharmacophore element C2",,6.95
same,"Ligand-pharmacophore element distance, pharmacophore element C3",,0
same,"Ligand-pharmacophore element distance, pharmacophore element C4",,0
same,"Ligand-pharmacophore element distance, pharmacophore element C5",,0
same,"Ligand-pharmacophore element distance, pharmacophore element C6",,0
same,"Ligand-pharmacophore element distance, pharmacophore element C7",,0
same,"Ligand-pharmacophore element distance, pharmacophore element CA1",,0.57
same,"Ligand-pharmacophore element distance, pharmacophore element CA2",,0.33
same,"Ligand-pharmacophore element distance, pharmacophore element CA3",,0
same,"Ligand-pharmacophore element distance, pharmacophore element CA4",,0
same,"Ligand-pharmacophore element distance, pharmacophore element CA5",,0
same,"Ligand-pharmacophore element distance, pharmacophore element CA6",,0
same,"d(CA1,N1)",[1],3.47
same,"d(CA1,O1)",[1],4.10
same,"d(CA1,O2)",[1],4.29
same,"d(H4,O1)",[1],4.58
same,"d(H4,O2)",[1],4.38
same,"d(O1,O2)",[1],3.01
same,"d(N2,C2)",,6.69
same,"d(N2,CA2)",,5.73
same,"d(O2,H3)",,2.72
same,"d(O2,N2)",,2.76
same,"a(CA1, O1, O2)",Table A6-1 pharmacophore angle,114.34
same,"a(O1, O2, H4)",Table A6-1 pharmacophore angle,140.76
same,"A(N1, CA1, O1) a)","Table A6-1 pharmacophore angle, all compounds with protonatable center N1 except Methyl-amino-pyridine",160.78
same,"a(O1, O2, H3)",,137.51
same,"a(O1, O2, N2)",,140.97
same,"a(O2, N2, C2)",,159.29
same,"a(O2, N2, CA2)",,153.66
same,"Pharmacophore torsion angle a(H4, O1, O2, H3)",[2],102.21
same,"Pharmacophore torsion angle a(H4, O1, O2, N2)",[2],123.45
same,"Pharmacophore torsion angle a(N1, CA1, O2, H4)",[2],−131.38
same,"Pharmacophore torsion angle a(O1, H4, O2, CA1)",[2],−58.32
same,"Pharmacophore torsion angle a(O1, O2, N2, C2)",[2],66.94
same,"Pharmacophore torsion angle a(O1, O2, N2, CA2)",[3],147.29
